Source: PubChem BioAssay (NCI)
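Cells were grown in 96-well plates and exposed to each compound for 48 hours at five concentrations; endpoints were interpolated linearly between bracketing concentrations, or set to the highest concentration if not reached. GI50 is the concentration that inhibits growth by half. TGI denotes the concentration required for complete inhibition of growth.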

Legend:
Assay in all cases: DTP human tumour cell line panel, 48 h
COLO 205 colon = test system: COLO 205 colon
OVCAR-4 ovarian = test system: OVCAR-4 ovarian
PC-3 prostate = test system: PC-3 prostate
HL-60(TB) leukemia = test system: HL-60(TB) leukemia
HT29 colon = test system: HT29 colon
KM12 colon = test system: KM12 colon
HS 578T breast = test system: HS 578T breast
SK-MEL-5 melanoma = test system: SK-MEL-5 melanoma
MALME-3M melanoma = test system: MALME-3M melanoma
T-47D breast = test system: T-47D breast
SF-539 CNS = test system: SF-539 CNS
MDA-MB-435 = test system: MDA-MB-435
OVCAR-5 ovarian = test system: OVCAR-5 ovarian
NCI-H460 lung = test system: NCI-H460 lung
UACC-257 melanoma = test system: UACC-257 melanoma
A549 NSCLC = test system: A549 NSCLC
NCI/ADR-RES ovarian = test system: NCI/ADR-RES ovarian
786-0 renal = test system: 786-0 renal
NCI-H23 lung = test system: NCI-H23 lung
TK-10 renal = test system: TK-10 renal
SR leukemia = test system: SR leukemia
MDA-MB-231 breast = test system: MDA-MB-231 breast
SNB-19 CNS = test system: SNB-19 CNS
MCF7 breast = test system: MCF7 breast
MOLT-4 leukemia = test system: MOLT-4 leukemia
OVCAR-8 ovarian = test system: OVCAR-8 ovarian
SK-MEL-2 melanoma = test system: SK-MEL-2 melanoma
SN12C renal = test system: SN12C renal
M14 melanoma = test system: M14 melanoma
CCRF-CEM leukemia = test system: CCRF-CEM leukemia
CAKI-1 renal = test system: CAKI-1 renal
HCT-116 colon = test system: HCT-116 colon
HCC-2998 colon = test system: HCC-2998 colon
SK-OV-3 ovarian = test system: SK-OV-3 ovarian
UACC-62 melanoma = test system: UACC-62 melanoma
HOP-62 NSCLC = test system: HOP-62 NSCLC
SK-MEL-28 melanoma = test system: SK-MEL-28 melanoma
HOP-92 NSCLC = test system: HOP-92 NSCLC
DU-145 prostate = test system: DU-145 prostate
SF-268 CNS = test system: SF-268 CNS
SF-295 CNS = test system: SF-295 CNS
RXF 393 renal = test system: RXF 393 renal
U251 CNS = test system: U251 CNS
RPMI-8226 leukemia = test system: RPMI-8226 leukemia
K-562 leukemia = test system: K-562 leukemia
OVCAR-3 ovarian = test system: OVCAR-3 ovarian
IGROV1 ovarian = test system: IGROV1 ovarian
UO-31 renal = test system: UO-31 renal
NCI-H226 lung = test system: NCI-H226 lung
A498 renal = test system: A498 renal
HCT-15 colon = test system: HCT-15 colon
SW-620 colon = test system: SW-620 colon
ACHN renal = test system: ACHN renal
SNB-75 CNS = test system: SNB-75 CNS
BT-549 breast = test system: BT-549 breast

**Q.** What does the source list for `CN(C)c1ccc2nc3ccc(=N)cc-3sc2c1`?
**A.** GI50 (COLO 205 colon): 2.73 µM; TGI (COLO 205 colon): 10.3 µM; GI50 (OVCAR-4 ovarian): 1.04 µM; TGI (OVCAR-4 ovarian): 2.47 µM; GI50 (PC-3 prostate): 1.03 µM; TGI (PC-3 prostate): 14.2 µM; GI50 (HL-60(TB) leukemia): 7.53 µM; TGI (HL-60(TB) leukemia): 32.9 µM; GI50 (HT29 colon): 21.6 µM; TGI (HT29 colon): 63.5 µM; GI50 (KM12 colon): 3.67 µM; TGI (KM12 colon): 21.7 µM; GI50 (HS 578T breast): 11.4 µM; TGI (HS 578T breast): 39.5 µM; GI50 (SK-MEL-5 melanoma): 1.51 µM; TGI (SK-MEL-5 melanoma): 5.78 µM; GI50 (MALME-3M melanoma): 2.26 µM; TGI (MALME-3M melanoma): 7.67 µM; GI50 (T-47D breast): 3.63 µM; TGI (T-47D breast): 21.3 µM; GI50 (SF-539 CNS): 2.2 µM; TGI (SF-539 CNS): 5.12 µM; GI50 (MDA-MB-435): 1.75 µM; TGI (MDA-MB-435): 3.63 µM; GI50 (OVCAR-5 ovarian): 11 µM; TGI (OVCAR-5 ovarian): 29.4 µM; GI50 (NCI-H460 lung): 7.06 µM; TGI (NCI-H460 lung): > 100 µM; GI50 (UACC-257 melanoma): 2.6 µM; TGI (UACC-257 melanoma): 9.71 µM; GI50 (A549 NSCLC): 2.37 µM; TGI (A549 NSCLC): 13.9 µM; GI50 (NCI/ADR-RES ovarian): 3.11 µM; TGI (NCI/ADR-RES ovarian): 48.3 µM; GI50 (786-0 renal): 11.8 µM; TGI (786-0 renal): 28.7 µM; GI50 (NCI-H23 lung): 3.3 µM; TGI (NCI-H23 lung): 49.5 µM; GI50 (TK-10 renal): 7.76 µM; TGI (TK-10 renal): 31.4 µM; GI50 (SR leukemia): 6.86 µM; TGI (SR leukemia): > 100 µM; GI50 (MDA-MB-231 breast): 1.88 µM; TGI (MDA-MB-231 breast): 11.8 µM; GI50 (SNB-19 CNS): 2.86 µM; TGI (SNB-19 CNS): 21.1 µM; GI50 (MCF7 breast): 1.91 µM; TGI (MCF7 breast): 6.29 µM; GI50 (MOLT-4 leukemia): 3.47 µM; TGI (MOLT-4 leukemia): > 100 µM; GI50 (OVCAR-8 ovarian): 2.14 µM; TGI (OVCAR-8 ovarian): 12 µM; GI50 (SK-MEL-2 melanoma): 9.24 µM; TGI (SK-MEL-2 melanoma): 26.8 µM; GI50 (SN12C renal): 2.37 µM; TGI (SN12C renal): 8.06 µM; GI50 (M14 melanoma): 3.9 µM; TGI (M14 melanoma): 14.3 µM; GI50 (CCRF-CEM leukemia): 2.15 µM; TGI (CCRF-CEM leukemia): > 100 µM; GI50 (CAKI-1 renal): 4.21 µM; TGI (CAKI-1 renal): 19.3 µM; GI50 (HCT-116 colon): 2.38 µM; TGI (HCT-116 colon): 12.5 µM; GI50 (HCC-2998 colon): 8.39 µM; TGI (HCC-2998 colon): > 100 µM; GI50 (SK-OV-3 ovarian): 10.6 µM; TGI (SK-OV-3 ovarian): 38.7 µM; GI50 (UACC-62 melanoma): 2.66 µM; TGI (UACC-62 melanoma): 8.19 µM; GI50 (HOP-62 NSCLC): 6.87 µM; TGI (HOP-62 NSCLC): 51.5 µM; GI50 (SK-MEL-28 melanoma): 11.9 µM; TGI (SK-MEL-28 melanoma): 27.7 µM; GI50 (HOP-92 NSCLC): 3.79 µM; TGI (HOP-92 NSCLC): 41.6 µM; GI50 (DU-145 prostate): 14.3 µM; TGI (DU-145 prostate): 28.3 µM; GI50 (SF-268 CNS): 4.13 µM; TGI (SF-268 CNS): 20 µM; GI50 (SF-295 CNS): 5.98 µM; TGI (SF-295 CNS): 21.2 µM; GI50 (RXF 393 renal): 10.4 µM; TGI (RXF 393 renal): 26.8 µM; GI50 (U251 CNS): 2.71 µM; TGI (U251 CNS): 10.5 µM; GI50 (RPMI-8226 leukemia): 1.21 µM; TGI (RPMI-8226 leukemia): 25.7 µM; GI50 (K-562 leukemia): 2.61 µM; TGI (K-562 leukemia): > 100 µM; GI50 (OVCAR-3 ovarian): 2.75 µM; TGI (OVCAR-3 ovarian): 12 µM; GI50 (IGROV1 ovarian): 8.59 µM; TGI (IGROV1 ovarian): 35.9 µM; GI50 (UO-31 renal): 11.6 µM; TGI (UO-31 renal): 31.2 µM; GI50 (NCI-H226 lung): 12.1 µM; TGI (NCI-H226 lung): 28.8 µM; GI50 (A498 renal): 2.02 µM; TGI (A498 renal): 39.5 µM; GI50 (HCT-15 colon): 3.07 µM; TGI (HCT-15 colon): 24.4 µM; GI50 (SW-620 colon): 2.83 µM; TGI (SW-620 colon): 12.9 µM; GI50 (ACHN renal): 5.43 µM; TGI (ACHN renal): 39.8 µM; GI50 (SNB-75 CNS): 3.29 µM; TGI (SNB-75 CNS): 15.4 µM; GI50 (BT-549 breast): 7.74 µM; TGI (BT-549 breast): 69 µM
